From patent US5000936A, “Methods for locally-treating allergic disorders with pharmaceutical preparations containing N-acetyl-aspartyl glutamic acid or its salts” (THEA (Therapeutique et Applications) S.A., priority 1983, dated 1991)
Where a name gives a salt, the structure may show the parent alone. Where a SMILES comes first, the peptide text is derived from it.

What was measured:
[1] = metabolism after oral and parenteral administration (statement); format: in vivo; settings: oral and parenteral routes of administration
[2] = tested on: chronic allergic conjunctivitis; experiment: double blind clinical study in chronic allergic conjunctivitis (Example IX); format: in vivo, patients
Experimental: The trial was performed in double blind. The objective was to determine the effects of the composition according to Example I.2.: an ophthalmic solution at 4 % concentration, on the ocular symptoms and inflammatory conjunctival signs of patients suffering from chronic allergic conjunctivitis, compared with the sodium cromoglycate in ophthalmic solution at 2 % concentration used in therapy. The results of this comparative study concern 33 patients, of both sexes, who were distributed randomly into two groups: received the composition according to Example I.2. during 2 weeks at the rate of 1 drop in each eye to be treated, 3 to 5 times daily. These patients then received sodium cromoglycate in eye-drops at 2 % concentration (commercial eye-drops) during two supplementary weeks and at the same dosage, 16 patients received the same eye-drops in the reverse order and for the same lengths of time. The random assortment of the patients ensured good homogeneity in the distribution between the two treatment groups, not only in respect of the clinical characteristics, but also in respect of the duration of administration of the eye-drops under trial, and the use of concomitant treatments.

[3] = tested on: mast cells of the nasal mucosa; experiment: mast cell degranulation of nasal mucosa of guinea pig by instillation of 48/80; format: in vivo
Experimental: The test is based on the determination by microscopy of the number of granulated mast cells per unit area in the nasal mucosa of the guinea pig, and on the study of the administration of a histamine releasing substance --48/80--on this number of mast cells. Guinea pigs receive in each nostril, twice daily during 3 days. 0.1 ml of the product under investigation, 15 minutes before the nasal instillation of 0.1 ml of 48/80 in solution at 2 % concentration; the animals are sacrificed 1 hour after the last instillation.
After sacrifice, the nasal mucosa is removed, then fixed and stained with toluidine blue to allow selective staining of the granulated mast cells. For each animal, the mast cells contained in 100 microscopic fields are counted by microscopy.

allergic conjunctivitis = experiment: trial on allergic conjunctivitis in the rabbit; format: in vivo; settings: n = 12 eyes
Text: The experimental protocol has been established according to works by OKADA et al. (OKADA-SHIMADA, Invest. Ophthalmol. Vis. Sc. 1980, 19 2, 176-181).
The model of allergic conjunctivitis used consists in effecting a conjunctival immunization in rabbits by local injection of rabbit antibodies to bovine gammaglobulins. The conjunctivitis is then triggered by the inflammation of allergic origin thus provoked are observed as an increase in the weight of the conjunctiva, and as enhancement of the conjunctival capillary permeability to iodine-125 labeled rabbit serum albumin injected intravenously before the injection of the antigen.
Two hours after the injection of bovine gammaglobulins, the rabbits are sacrificed, and then the eyes are removed and the conjunctiva dissected out, weighed and submitted to radioactive counting.
Three parameters are recorded:
the weight of the conjunctiva,
the blood conjunctiva permeability index, evaluated as the ratio of the radioactivity of 1 mg of conjunctiva to that of 1 ml of blood,
the quantity of labeled serum albumin recovered in the conjunctiva.
To evaluate the protective effect of the preparation under investigation, several batches of six rabbits are formed, which receive 6 instillations of 2 eye-drops in each eye daily for 3.5 days before the injection of labeled serum albumin.
One batch of six normal rabbits, not tested and not subjected to provacation of the allergy, is also formed ("blank" batch), as well as a batch of six control rabbits receiving instillations of physiological serum before the triggering of the conjunctivitis ("conjunctivitis controls").

[4] = tested on: sub-acute and chronic atopic conjunctivitis; experiment: clinical study in sub-acute and chronic atopic conjunctivitis (Example XII); format: in vivo; settings: 27 patients; at least one year on 2 % Cromoglycate, then two months 4 % NAAGA eye-drops four times daily
Experimental: Twenty seven patients suffering from sub-acute and chronic atopic conjunctivitis who were treated for at least one year on 2 % Cromoglycate eye-drops, were switched from Cromoglycate treatment to 4 % NAAGA eye-drops four times daily. Before and after two months treatment period with composition according to example I.2., the patients were checked objectively in order to score the severity of conjunctival livid hyperemia and the amount of exudate. Subjectively the patients were asked to assess the symptoms of itching, burning and photophobia. Objective and subjective assessments were scored by means of visual analog scales.

[5] = tested on: perennial allergic rhinitis; experiment: double-blind cross-over clinical study in perennial allergic rhinitis (Example XIII); format: in vivo, patients; settings: 2 sprays per nostril, 5 times per day, 2 weeks
Experimental: The aim of the present study was to determine the efficacy and tolerance of the composition according to example II.2., in the treatment of allergic rhinitis. For this purpose, a double-blind trial was undertaken versus a reference drug: disodium Cromoglycate in a 2 % nasal solution. The study involved 34 patients, suffering from perennial allergic rhinitis. Each patient was included in a cross-over treatment protocol, according to which the two drugs compared were administered successively during 2 treatment periods of 2 weeks each, at the dose of 2 sprays per nostril, 5 times per day.

ciliary movement = experiment: acute tolerance on ciliary movement, overall verdict; format: cell-based, guinea pigs or rabbits; settings: contact times which exceed 20 minutes
Text: The technique used has been described under the name of microphotooscillography (L. G. CHEVANCE, J. F. LENNON: Etude des rythmes du battement ciliare (Study of rhythms of ciliary beating) Acta Otolaryng., 1970-70, 16-28)). In this study, guinea pigs or rabbits were used which were free of all clinical sign of infection of the airways. The animals are sacrificed, and then the nasal septum or trachea is dissected out. These tissues are placed in PBS survival medium and the superficial epithelium is removed by scraping, over an area of about 1 mm^2. This sample, which contains numerous ciliated cells in movement, is placed in an observation chamber under a special microscope equipped with a microphotoelectric system permitting the recording of ciliary beats in transillumination.
The measurement consists in recording the fluctuations in the light caused by the image, enlarged 500 times, of a cilium moving in front of the aperture of a diaphragm of suitable dimensions. After amplification, the fluctuations in light are recorded graphically.
Impairments of ciliary movement are translated as a decrease in the frequency of the ciliary beats. […]

With `CC(=O)N[C@@H](CC(=O)O)C(=O)N[C@@H](CCC(=O)O)C(=O)O` [NAAGA, N-acetyl-(alpha, beta)-aspartyl glutamic acid] (Ac-Asp-Glu-OH) the metabolism [1] was “rapidly and extensively metabolized”.
For `O=C(O)c1cc(=O)c2c(OCC(O)COc3cccc4oc(C(=O)O)cc(=O)c34)cccc2o1` [sodium cromoglycate], the “patients with improvement in the ocular symptoms” value ([2]; 1 drop in each eye 3 to 5 times daily, 2 weeks per product, 33 patients) was “more than 65%”, the “preferences expressed by the patients” value ([2]; cross-over comparison of the two eye-drops) was 33% and the “Average number of granulated mast cells per microscopic field” value ([3]; 0.1 ml in each nostril twice daily during 3 days, 15 minutes before 48/80 at 2 %) was 4.6. The “protective effect inferior to that of NAAGA by” value ([3]; 2 % concentration (commercial solution), same experimental condition) was “about 40%”, the “Quantity of serum albumin in the conjunctiva” value (allergic conjunctivitis; 6 instillations of 2 eye-drops in each eye daily for 3.5 days, mean ± spread) was 34.5 ± 13.6 µg and the “Weight of the conjunctiva” value (allergic conjunctivitis) was 411 ± 64 mg. The “Blood-conjunctiva index (× 100)” value (allergic conjunctivitis; ratio of radioactivity of 1 mg of conjunctiva to that of 1 ml of blood, × 100) was 4.7 ± 1.8, the “frequency of marginal objective control” value [4] was 33% and the “frequency of marginal subjective control” value [4] was 37%. The “Nasal and systemic tolerance” value [5] was “good and no side-effects were seen” and the “patients with results of treatment considered to be good” value [5] was 61%.
In the case of `CC(=O)N[C@@H](CC(=O)O)C(=O)N[C@@H](CCC(=O)O)C(=O)O` [sodium salt] (Ac-Asp-Glu-OH), the “acute tolerance on ciliary movement versus criterion (not more than 50% decrease after twenty minutes)” value (ciliary movement) is reported as “Analogous results”.
